Reference: ChEMBL document CHEMBL1147598, “1-(2-Naphthyl)-1H-pyrazole-5-carboxylamides as potent factor Xa inhibitors. Part 3: Design, synthesis and SAR of orally bioavailable benzamidine-P4 inhibitors” (Bioorg Med Chem Lett, 2004)

What was measured:
Coagulation factor X [1] = target: T1, Coagulation factor X (Homo sapiens, UniProt P00742); assay: In vitro inhibitory activity against human coagulation factor X
[2] = In vitro anticoagulant potency measured in human plasma by thrombin generation (TG) assay expressed as 2 x TG; format: functional
Coagulation factor X [3] = target: T1, Coagulation factor X; assay: Binding affinity for human Coagulation factor X
[4] = (§1) Half-life determined in rat; format: ADME, organism-based; details: in vivo
[5] = target: Plasminogen (Homo sapiens) (UniProt P00747); assay: Inhibitory activity of compound against plasmin
Chain of Plasminogen (Homo sapiens) (P00747 whole entry, looked up): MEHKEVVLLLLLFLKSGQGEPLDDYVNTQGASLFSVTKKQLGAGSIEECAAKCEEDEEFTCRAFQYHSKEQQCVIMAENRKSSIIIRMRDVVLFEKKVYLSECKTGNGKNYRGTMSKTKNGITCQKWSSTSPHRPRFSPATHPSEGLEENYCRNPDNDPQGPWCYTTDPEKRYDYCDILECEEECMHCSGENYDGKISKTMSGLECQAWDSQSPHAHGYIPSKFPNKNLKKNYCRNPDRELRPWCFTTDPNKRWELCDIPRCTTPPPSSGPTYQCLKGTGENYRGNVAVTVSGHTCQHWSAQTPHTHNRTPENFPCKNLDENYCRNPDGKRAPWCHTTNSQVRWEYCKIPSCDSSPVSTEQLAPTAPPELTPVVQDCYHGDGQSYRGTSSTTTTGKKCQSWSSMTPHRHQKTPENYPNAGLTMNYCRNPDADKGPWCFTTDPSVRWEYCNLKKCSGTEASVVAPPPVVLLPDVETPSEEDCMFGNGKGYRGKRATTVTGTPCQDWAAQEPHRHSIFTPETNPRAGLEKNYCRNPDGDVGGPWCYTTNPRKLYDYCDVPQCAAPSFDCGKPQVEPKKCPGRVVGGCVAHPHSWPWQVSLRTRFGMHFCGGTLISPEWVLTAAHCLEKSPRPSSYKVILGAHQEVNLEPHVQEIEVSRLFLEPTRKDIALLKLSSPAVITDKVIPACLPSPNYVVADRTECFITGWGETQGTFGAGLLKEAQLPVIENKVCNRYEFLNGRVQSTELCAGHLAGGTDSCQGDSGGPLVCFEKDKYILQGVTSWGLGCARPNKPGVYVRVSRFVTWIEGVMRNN

[6] = (§2) Clearance rate in rat; format: ADME, organism-based; details: in vivo
[7] = Bioavailability in rat; format: ADME, organism-based; details: in vivo
[8] = target: Tissue-type plasminogen activator (Homo sapiens, UniProt P00750); assay: Inhibitory activity of compound against tissue type plasminogen activator
Chain of Tissue-type plasminogen activator (P00750 whole entry): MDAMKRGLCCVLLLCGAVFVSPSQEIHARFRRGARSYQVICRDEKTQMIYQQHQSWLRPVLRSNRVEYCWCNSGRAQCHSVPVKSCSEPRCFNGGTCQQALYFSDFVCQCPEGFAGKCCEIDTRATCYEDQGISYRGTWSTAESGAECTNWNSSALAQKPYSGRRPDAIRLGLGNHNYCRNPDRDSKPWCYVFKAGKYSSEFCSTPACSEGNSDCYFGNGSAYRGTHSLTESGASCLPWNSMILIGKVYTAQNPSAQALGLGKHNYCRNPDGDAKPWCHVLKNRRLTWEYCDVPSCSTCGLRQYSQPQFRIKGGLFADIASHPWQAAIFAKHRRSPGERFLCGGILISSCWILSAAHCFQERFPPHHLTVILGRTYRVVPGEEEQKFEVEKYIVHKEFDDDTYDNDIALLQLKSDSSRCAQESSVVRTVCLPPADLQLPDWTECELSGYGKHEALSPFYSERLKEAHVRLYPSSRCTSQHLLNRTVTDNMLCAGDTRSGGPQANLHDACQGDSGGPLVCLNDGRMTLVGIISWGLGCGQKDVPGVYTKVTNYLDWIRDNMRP

[9] = target: Vitamin K-dependent protein C (Homo sapiens, UniProt P04070); assay: Inhibitory activity against activated protein C was determined
Chain of Vitamin K-dependent protein C (P04070 43-197 limits assumed): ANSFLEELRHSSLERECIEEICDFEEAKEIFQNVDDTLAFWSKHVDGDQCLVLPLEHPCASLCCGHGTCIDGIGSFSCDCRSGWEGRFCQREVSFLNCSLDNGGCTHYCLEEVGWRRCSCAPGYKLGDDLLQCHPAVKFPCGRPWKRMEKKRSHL
Chain of Vitamin K-dependent protein C (P04070 212-461 limits assumed): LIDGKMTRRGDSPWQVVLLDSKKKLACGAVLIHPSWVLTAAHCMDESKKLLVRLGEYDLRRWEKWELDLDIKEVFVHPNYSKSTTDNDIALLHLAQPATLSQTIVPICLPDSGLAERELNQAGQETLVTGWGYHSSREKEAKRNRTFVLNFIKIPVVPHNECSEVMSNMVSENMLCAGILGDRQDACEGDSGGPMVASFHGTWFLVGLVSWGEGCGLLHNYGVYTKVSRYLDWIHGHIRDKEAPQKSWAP

[10] = (§3) Volume of distribution in rat; format: ADME, organism-based; details: in vivo
Prothrombin = Prothrombin (Homo sapiens, UniProt P00734); assay: Inhibitory activity of compound against thrombin
Oryctolagus cuniculus [11] = assay: In vivo inhibition of thrombus accretion at a plasma level of 4.5 […] in the rabbit deep vein thrombosis (DVT) model; format: functional
Kallikrein-1 = Kallikrein-1 (Homo sapiens, UniProt P06870); assay: Inhibitory activity of compound against kallikrein
Chain of Kallikrein-1 (P06870 whole entry): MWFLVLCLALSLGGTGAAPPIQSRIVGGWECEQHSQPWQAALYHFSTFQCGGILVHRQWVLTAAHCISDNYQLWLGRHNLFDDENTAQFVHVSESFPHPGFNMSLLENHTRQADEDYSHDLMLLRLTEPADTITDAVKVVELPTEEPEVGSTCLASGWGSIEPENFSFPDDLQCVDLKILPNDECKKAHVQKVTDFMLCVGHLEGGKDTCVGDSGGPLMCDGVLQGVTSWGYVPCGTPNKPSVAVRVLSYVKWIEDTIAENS

Oryctolagus cuniculus [12] = assay: In vivo inhibition of thrombus accretion at a plasma level of 3.7 […] in the rabbit deep vein thrombosis (DVT) model; format: functional
Serine protease 1 = Serine protease 1 (Homo sapiens, UniProt P07477); assay: Inhibitory activity of compound against trypsin
Chain of Serine protease 1 (P07477 whole entry): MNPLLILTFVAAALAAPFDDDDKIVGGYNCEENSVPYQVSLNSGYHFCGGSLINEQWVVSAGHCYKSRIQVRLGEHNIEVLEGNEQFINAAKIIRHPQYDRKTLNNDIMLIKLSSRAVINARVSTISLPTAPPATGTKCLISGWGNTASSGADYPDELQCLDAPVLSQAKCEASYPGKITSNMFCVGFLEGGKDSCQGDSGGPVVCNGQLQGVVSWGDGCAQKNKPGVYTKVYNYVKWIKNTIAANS

Rattus norvegicus [13] = species on record: Rattus norvegicus; assay: as §1; format: ADME, organism-based; details: in vivo
Rattus norvegicus [14] = species on record: Rattus norvegicus; assay: as §2; format: ADME, organism-based; details: in vivo
Rattus norvegicus [15] = species on record: Rattus norvegicus; assay: as §3; format: ADME, organism-based; details: in vivo
Oryctolagus cuniculus [16] = assay: In vivo inhibition of thrombus accretion at a plasma level of 3.9 […] in the rabbit deep vein thrombosis (DVT) model; format: functional
Oryctolagus cuniculus [17] = assay: In vivo inhibition of thrombus accretion at a plasma level of 4.6 […] in the rabbit deep vein thrombosis (DVT) model; format: functional

T1 sequence (P00742 41-179 limits assumed): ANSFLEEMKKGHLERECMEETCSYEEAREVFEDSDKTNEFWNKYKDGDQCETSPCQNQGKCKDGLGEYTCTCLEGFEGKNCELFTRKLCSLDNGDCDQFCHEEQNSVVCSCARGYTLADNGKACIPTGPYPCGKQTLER
T1 sequence (P00742 235-488 limits assumed): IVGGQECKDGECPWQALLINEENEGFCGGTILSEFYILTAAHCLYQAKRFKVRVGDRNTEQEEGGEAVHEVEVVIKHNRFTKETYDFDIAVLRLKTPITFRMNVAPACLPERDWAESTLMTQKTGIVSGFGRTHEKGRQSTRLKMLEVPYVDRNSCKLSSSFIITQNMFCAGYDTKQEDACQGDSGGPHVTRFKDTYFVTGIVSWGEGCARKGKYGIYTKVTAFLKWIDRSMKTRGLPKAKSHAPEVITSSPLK

IC50 (Coagulation factor X [1]) [nM]	Compound	Activity [2] [µM]	also measured
7	Cc1cc(C(=O)Nc2ccc(C(=N)N3CCCCC3)cc2F)n(-c2ccc3cc(Cl)ccc3c2)n1		
8	Cc1cc(C(=O)Nc2ccc(C3=NCCN3C)cc2F)n(-c2ccc3cc(Cl)ccc3c2)n1	0.91	Ki (Coagulation factor X [3]): 1 nM
777	Cc1cc(C(=O)Nc2ccc(C(=N)N)cc2F)n(-c2cc3ccccc3cc2F)n1		
114	CNC(=N)c1ccc(NC(=O)c2cc(C)nn2-c2cc3ccccc3cc2F)c(F)c1		
1	CN(C)C(=N)c1ccc(NC(=O)c2cc(C(F)(F)F)nn2-c2ccc3cc(Cl)ccc3c2)c(F)c1	1.8	Ki (Coagulation factor X [3]): 0.9 nM
12	Cc1cc(C(=O)Nc2ccc(C(=N)N(C)C)cc2F)n(-c2cc3ccccc3cc2S(C)(=O)=O)n1	0.53	Ki (Coagulation factor X [3]): 2.8 nM
7	N=C(c1ccc(NC(=O)c2nnnn2-c2ccc3cc(Cl)ccc3c2)c(F)c1)N1CCCC1		
110	COCCN(C)C(=N)c1ccc(NC(=O)c2cc(C)nn2-c2cc3ccccc3cc2F)c(F)c1		
511	Cc1cc(C(=O)Nc2ccc(C(=N)N(C)C)s2)n(-c2cc3ccccc3cc2F)n1		
110	CN1CCN=C1c1ccc(NC(=O)c2nnnn2-c2cc3ccccc3cc2F)c(F)c1		
8	Cc1cc(C(=O)Nc2ccc(C(=N)N3CCCCC3)cc2F)n(-c2cc3ccccc3cc2F)n1	1.5	Ki (Coagulation factor X [3]): 5.2 nM
5	Cc1cc(C(=O)Nc2ccc(C(=N)N(C)C)cc2F)n(-c2ccc3cc(Cl)ccc3c2)n1	0.83	half-life [4]: 18 h; IC50 [5]: > 10000 nM; clearance [6]: 55.9 mL/min/kg; bioavailability [7]: 13.8%; IC50 [8]: > 10000 nM; IC50 [9]: > 10000 nM; Vd [10]: 82.5 L/kg; IC50 (Prothrombin): > 10000 nM; Ki (Coagulation factor X [3]): 0.7 nM; Inhibition (Oryctolagus cuniculus [11]): 56%; IC50 (Kallikrein-1): > 10000 nM; Inhibition (Oryctolagus cuniculus [12]): 20%; IC50 (Serine protease 1): > 10000 nM
10	N=C(c1ccc(NC(=O)c2cc(C(F)(F)F)nn2-c2cc3ccccc3cc2F)c(F)c1)N1CCCC1		
7	Cc1cc(C(=O)Nc2ccc(C(=N)N3CCCC3)cc2F)n(-c2ccc3cc(Cl)ccc3c2)n1		
18	Cc1cc(C(=O)Nc2ccc(C3=NCCN3C)cc2F)n(-c2cc3ccccc3cc2F)n1	1.7	half-life [4]: 1.8 h; clearance [6]: 49.3 mL/min/kg; bioavailability [7]: 43.9%; Vd [10]: 7.6 L/kg; Ki (Coagulation factor X [3]): 8 nM
	Cc1cc(C(=O)Nc2ccc(C(=N)N(C)C)cc2F)n(-c2cc3ccccc3cc2F)n1	1	T1/2 (Rattus norvegicus [13]): 3.1 h; IC50 [5]: > 10000 nM; CL (Rattus norvegicus [14]): 54.3 mL/min/kg; bioavailability [7]: 24.3%; IC50 [8]: > 10000 nM; IC50 [9]: > 10000 nM; Vd (Rattus norvegicus [15]): 49.4 L/kg; IC50 (Prothrombin): > 10000 nM; Ki (Coagulation factor X [3]): 3.9 nM; IC50 (Kallikrein-1): > 10000 nM; IC50 (Serine protease 1): > 10000 nM
34	CCCN(C)C(=N)c1ccc(NC(=O)c2cc(C)nn2-c2cc3ccccc3cc2F)c(F)c1		
6	Cc1cc(C(=O)Nc2ccc(C(=N)N3CCCC3)cc2F)n(-c2cc3ccccc3cc2F)n1	1.4	Ki (Coagulation factor X [3]): 4.1 nM
2	CN(C)C(=N)c1ccc(NC(=O)c2nnnn2-c2ccc3cc(Cl)ccc3c2)c(F)c1	2.5	Ki (Coagulation factor X [3]): 0.7 nM
22	CCN(C)C(=N)c1ccc(NC(=O)c2cc(C)nn2-c2cc3ccccc3cc2F)c(F)c1		

IC50 (Coagulation factor X [1]) [nM]	Compound	Activity [2] [µM]	also measured
8	N=C(c1ccc(NC(=O)c2nnnn2-c2ccc3cc(Cl)ccc3c2)c(F)c1)N1CCCCC1		
4	N=C(c1ccc(NC(=O)c2cc(C(F)(F)F)nn2-c2ccc3cc(Cl)ccc3c2)c(F)c1)N1CCCCC1		
50	Cc1cc(C(=O)Nc2ccc(C(=N)N3CCCCCC3)cc2F)n(-c2cc3ccccc3cc2F)n1		
	CN(C)C(=N)c1ccc(NC(=O)c2cc(C(F)(F)F)nn2-c2cc3ccccc3cc2F)c(F)c1	1.4	half-life [4]: 8.8 h; IC50 [5]: > 10000 nM; clearance [6]: 14.7 mL/min/kg; bioavailability [7]: 46.9%; IC50 [8]: > 10000 nM; Inhibition (Oryctolagus cuniculus [16]): 20%; IC50 [9]: > 10000 nM; Vd [10]: 11 L/kg; Inhibition (Oryctolagus cuniculus [17]): 51%; IC50 (Prothrombin): > 10000 nM; IC50 (Kallikrein-1): > 10000 nM; IC50 (Serine protease 1): > 10000 nM
479	Cc1cc(C(=O)Nc2cccc(C(=N)N(C)C)c2)n(-c2cc3ccccc3cc2F)n1		
377	Cc1cc(C(=O)Nc2cc(C(=N)N(C)C)cs2)n(-c2cc3ccccc3cc2F)n1		
80	Cc1cc(C(=O)Nc2ccc(C(=N)N(C)Cc3ccccc3)cc2F)n(-c2cc3ccccc3cc2F)n1		
14	Cc1cc(C(=O)Nc2ccc(C3=NCCN3C)cc2F)n(-c2cc3ccccc3cc2S(C)(=O)=O)n1	0.78	Ki (Coagulation factor X [3]): 3.9 nM
2	N=C(c1ccc(NC(=O)c2cc(C(F)(F)F)nn2-c2ccc3cc(Cl)ccc3c2)c(F)c1)N1CCCC1		
15	Cc1cc(C(=O)Nc2ccc(C(=N)N3CCCC3)cc2F)n(-c2cc3ccccc3cc2S(C)(=O)=O)n1		
28	Cc1cc(C(=O)Nc2ccc(C(=N)N3CCCCC3)cc2F)n(-c2cc3ccccc3cc2S(C)(=O)=O)n1		
2	CN1CCN=C1c1ccc(NC(=O)c2cc(C(F)(F)F)nn2-c2ccc3cc(Cl)ccc3c2)c(F)c1	4.5	Ki (Coagulation factor X [3]): 1.2 nM
11	N=C(c1ccc(NC(=O)c2cc(C(F)(F)F)nn2-c2cc3ccccc3cc2F)c(F)c1)N1CCCCC1		
134	Cc1cc(C(=O)Nc2ccc(C(=N)N3CCOCC3)cc2F)n(-c2cc3ccccc3cc2F)n1		
24	N=C(c1ccc(NC(=O)c2nnnn2-c2cc3ccccc3cc2F)c(F)c1)N1CCCC1		
76	N=C(c1ccc(NC(=O)c2nnnn2-c2cc3ccccc3cc2F)c(F)c1)N1CCCCC1		
16	CN(C)C(=N)c1ccc(NC(=O)c2nnnn2-c2cc3ccccc3cc2F)c(F)c1		
15	CN1CCN=C1c1ccc(NC(=O)c2nnnn2-c2ccc3cc(Cl)ccc3c2)c(F)c1		
48	Cc1cc(C(=O)Nc2ccc(C(=N)N(C)CCN(C)C)cc2F)n(-c2cc3ccccc3cc2F)n1		
50	Cc1cc(C(=O)Nc2ccc(C(=N)N3CCC3)cc2F)n(-c2cc3ccccc3cc2F)n1		
